Tests used:
[1] = DRUGMATRIX: Sodium/nucleoside co-transporter radioligand binding (ligand: nitrobenzylthioinosine); type: cell membranes, Cavia porcellus, Dunkin-Hartley, Cerebral cortex, Membrane; conditions: Not Active = under 50% inhibition at 10 µM
[2] = molecular target: Sodium-dependent noradrenaline transporter (Homo sapiens, UniProt P23975); test: DRUGMATRIX: Norepinephrine Transporter radioligand binding (ligand: [125I] RTI-55); type: cell membranes, MDCK, Membrane; conditions: mdck; Not Active = under 50% inhibition at 10 µM
Sodium-dependent noradrenaline transporter, sequence (P23975 whole entry): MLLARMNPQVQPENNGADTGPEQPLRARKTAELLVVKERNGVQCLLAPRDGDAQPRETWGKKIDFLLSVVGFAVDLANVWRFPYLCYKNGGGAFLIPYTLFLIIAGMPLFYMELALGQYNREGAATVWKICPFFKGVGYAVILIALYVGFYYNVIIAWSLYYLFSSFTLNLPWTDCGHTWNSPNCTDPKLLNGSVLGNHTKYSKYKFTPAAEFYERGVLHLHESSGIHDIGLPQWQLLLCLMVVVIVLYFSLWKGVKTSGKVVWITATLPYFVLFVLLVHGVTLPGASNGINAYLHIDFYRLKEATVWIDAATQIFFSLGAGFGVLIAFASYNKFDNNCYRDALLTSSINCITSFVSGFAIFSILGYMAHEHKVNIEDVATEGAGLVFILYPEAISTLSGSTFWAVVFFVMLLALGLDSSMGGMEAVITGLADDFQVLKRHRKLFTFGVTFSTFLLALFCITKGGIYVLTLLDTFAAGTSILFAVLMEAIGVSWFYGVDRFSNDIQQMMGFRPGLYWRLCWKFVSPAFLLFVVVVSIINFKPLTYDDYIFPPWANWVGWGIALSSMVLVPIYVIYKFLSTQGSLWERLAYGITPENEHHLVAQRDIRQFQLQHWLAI

[3] = molecular target: 5-hydroxytryptamine receptor 2B (Homo sapiens, UniProt P41595); type: cell membranes, CHO-K1, Membrane; conditions: cho-k1; also: in other assays of this panel Not Active means under 50% inhibition at 10 µM
5-hydroxytryptamine receptor 2B, sequence (P41595 whole entry): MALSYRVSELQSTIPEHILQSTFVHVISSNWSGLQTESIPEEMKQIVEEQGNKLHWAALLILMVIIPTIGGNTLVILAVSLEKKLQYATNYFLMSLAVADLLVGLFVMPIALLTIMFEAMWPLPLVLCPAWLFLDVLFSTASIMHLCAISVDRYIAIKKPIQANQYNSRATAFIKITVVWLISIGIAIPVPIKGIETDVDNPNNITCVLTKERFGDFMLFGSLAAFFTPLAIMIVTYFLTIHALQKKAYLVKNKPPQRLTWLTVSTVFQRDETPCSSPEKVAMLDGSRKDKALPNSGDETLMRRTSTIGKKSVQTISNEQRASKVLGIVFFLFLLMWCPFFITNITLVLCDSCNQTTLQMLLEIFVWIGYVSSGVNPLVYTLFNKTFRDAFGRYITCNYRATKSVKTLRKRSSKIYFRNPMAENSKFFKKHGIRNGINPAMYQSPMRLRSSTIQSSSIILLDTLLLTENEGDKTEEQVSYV

Melanocortin receptor 4 = Melanocortin receptor 4 (Homo sapiens, UniProt P32245); type: cell membranes, Membrane; conditions: hek293; also: in other assays of this panel Not Active means under 50% inhibition at 10 µM
Melanocortin receptor 4, sequence (P32245 whole entry): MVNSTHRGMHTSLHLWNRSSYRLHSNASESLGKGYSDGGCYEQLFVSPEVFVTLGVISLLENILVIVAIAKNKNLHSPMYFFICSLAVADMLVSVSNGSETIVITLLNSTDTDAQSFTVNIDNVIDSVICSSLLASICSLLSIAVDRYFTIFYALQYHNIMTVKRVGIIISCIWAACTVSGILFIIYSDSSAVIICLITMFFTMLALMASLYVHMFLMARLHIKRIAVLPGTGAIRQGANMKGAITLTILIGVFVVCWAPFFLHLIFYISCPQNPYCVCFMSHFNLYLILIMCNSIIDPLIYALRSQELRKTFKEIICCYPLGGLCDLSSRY

Acetylcholinesterase = Acetylcholinesterase (Homo sapiens, UniProt P22303); test: DRUGMATRIX: Acetylcholinesterase enzyme inhibition (substrate: acetylthiocholine); type: cell-based, HEK293; conditions: hek293; Not Active = under 50% inhibition at 10 µM
Acetylcholinesterase, sequence (P22303 whole entry): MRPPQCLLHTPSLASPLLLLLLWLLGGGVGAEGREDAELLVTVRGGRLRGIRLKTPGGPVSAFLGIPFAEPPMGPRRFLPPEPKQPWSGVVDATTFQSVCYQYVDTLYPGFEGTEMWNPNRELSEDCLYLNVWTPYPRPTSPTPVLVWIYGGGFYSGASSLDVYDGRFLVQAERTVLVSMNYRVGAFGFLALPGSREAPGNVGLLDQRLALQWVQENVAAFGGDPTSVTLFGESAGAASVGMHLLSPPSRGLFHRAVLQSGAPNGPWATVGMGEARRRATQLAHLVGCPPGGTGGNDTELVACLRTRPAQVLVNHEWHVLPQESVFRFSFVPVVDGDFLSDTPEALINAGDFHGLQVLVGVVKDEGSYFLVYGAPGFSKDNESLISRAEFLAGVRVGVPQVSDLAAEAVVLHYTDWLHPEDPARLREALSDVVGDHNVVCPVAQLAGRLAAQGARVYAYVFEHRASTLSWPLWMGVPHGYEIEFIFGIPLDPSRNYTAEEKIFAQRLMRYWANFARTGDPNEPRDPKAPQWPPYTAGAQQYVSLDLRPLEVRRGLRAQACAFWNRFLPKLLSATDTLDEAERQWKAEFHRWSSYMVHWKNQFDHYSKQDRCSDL

Adenosine receptor A3 = molecular target: T1, Adenosine receptor A3 (Homo sapiens, UniProt P0DMS8); type: cell membranes, CHO-K1, Membrane; conditions: cho-k1;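 also: radioligand binding assay with AB-MECA serving as the labeled ligand; in other assays of this panel Not Active means under 50% inhibition at 10 µM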
T1 sequence (P0DMS8 whole entry): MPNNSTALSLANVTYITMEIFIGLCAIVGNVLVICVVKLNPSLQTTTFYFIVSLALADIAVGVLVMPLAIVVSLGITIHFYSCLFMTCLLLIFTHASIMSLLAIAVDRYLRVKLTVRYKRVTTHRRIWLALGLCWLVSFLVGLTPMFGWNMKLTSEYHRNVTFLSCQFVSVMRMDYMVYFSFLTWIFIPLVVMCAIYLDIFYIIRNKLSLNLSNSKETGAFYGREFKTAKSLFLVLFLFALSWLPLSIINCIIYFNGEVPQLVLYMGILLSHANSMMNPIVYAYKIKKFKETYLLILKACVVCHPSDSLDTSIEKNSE

COc1ccc(C[C@H](N)C(=O)N[C@H]2[C@@H](O)[C@H](n3cnc4c(N(C)C)ncnc43)O[C@@H]2CO)cc1 [PUROMYCIN]
Not Active: IC50 [1] | Ki [1] | IC50 [2] | IC50 [3] | IC50 (Melanocortin receptor 4) | IC50 (Acetylcholinesterase) | IC50 (Adenosine receptor A3)

O=c1[nH]c2ccccc2c2ccccc12
Not Active: IC50 [1] | Ki [1] | IC50 [2] | IC50 [3] | IC50 (Melanocortin receptor 4) | IC50 (Acetylcholinesterase) | IC50 (Adenosine receptor A3)

COPPER(II) OXIDE
Not Active: IC50 [1] | Ki [1] | IC50 [2] | Ki [2] | IC50 [3] | Ki [3] | IC50 (Melanocortin receptor 4) | Ki (Melanocortin receptor 4) | IC50 (Acetylcholinesterase) | Ki (Acetylcholinesterase) | IC50 (Adenosine receptor A3) | Ki (Adenosine receptor A3)

CC12CCC(CC1)C(C)(C)O2 [EUCALYPTOL]
Not Active: IC50 [1] | Ki [1] | IC50 [2] | IC50 [3] | IC50 (Melanocortin receptor 4) | IC50 (Acetylcholinesterase) | IC50 (Adenosine receptor A3)
